For `O=C(O)c1ccc(OCc2ccc(-c3cccnc3)cc2)cc1O` [Compound 3-1, 2-Hydroxy-4-(4-pyridin-3-yl-benzyloxy)-benzoic acid], the melting point (usually the temperature, or range, at which the solid turns liquid) was 209 to 211 °C (dec.).
As for `O=C(O)c1cccc(-c2ccc(COc3ccc(C(=O)O)c(O)c3)cc2)c1` [Compound 3-7, 4′-(4-Carboxy-3-hydroxy-phenoxymethyl)-biphenyl-3-carboxylic acid], the melting point is 249 to 255 °C (dec.).
As for `O=C(O)c1ccc(OCc2cccc(-c3cccc([N+](=O)[O-])c3)c2)cc1O` [Compound 3-23, 2-Hydroxy-4-(3′-nitro-biphenyl-3-ylmethoxy)-benzoic acid], the figure is 188 to 193 °C (dec.).
Take `O=C(O)c1ccc(OCCCCCCC(O)CO)cc1O` (stereo not drawn) [Compound 2-6, 4-(7,8-Dihydroxyoctyloxy)-2-hydroxy-benzoic acid]: the melting point lay within 168 to 170 °C.
As for `Cc1noc(C)c1COc1ccc(C(=O)O)c(O)c1` [Compound 1-1, 2-Hydroxy-4-(3,5-dimethyl-isoxazol-4-yl-methyloxy)-benzoic acid], the figure is 201 to 203 °C; as for `CC(=O)Nc1cccc(-c2ccc(COc3ccc(C(=O)O)c(O)c3)cc2)c1` [Compound 3-12, 4-(3′-Acetylamino-biphenyl-4-ylmethoxy)-2-hydroxy-benzoic acid], 231 to 233 °C (dec.).
Turning to `O=C(O)c1ccc(OCc2ccc(-c3ccc(CO)cc3)cc2)cc1O` [Compound 3-16, 2-Hydroxy-4-(4′-hydroxymethyl-biphenyl-4-ylmethoxy)-benzoic acid], the melting point was 222 to 226 °C (dec.).
In turn, `CCCCCCCCOc1ccc(C#N)c(O)c1` [Compound 12-5, 2-Hydroxy-4-octyloxy-benzonitrile] had a melting point of 69 to 71 °C.
With `Nc1cccc(-c2cccc(COc3ccc(C(=O)O)c(O)c3)c2)c1` [Compound 3-24, 4-(3′-Amino-biphenyl-3-ylmethoxy)-2-hydroxy-benzoic acid], the melting point was 205 to 208 °C (dec.).
Consider `O=C(O)c1ccc(OCc2ccc(-c3ccncc3)cc2)cc1O` [Compound 3-2, 2-Hydroxy-4-(4-pyridin-4-yl-benzyloxy)-benzoic acid], for which the melting point is 252 to 257 °C (dec.).
The compound `CCCCCCCCOc1ccc(NS(C)(=O)=O)c(O)c1` [Compound 9-2, N-(2-hydroxy-4-octyloxy-phenyl)-methanesulfonamide] came in with a melting point of 98 to 101 °C.
Regarding `O=C(O)c1cccc(-c2cccc(COc3ccc(C(=O)O)c(O)c3)c2)c1` [Compound 3-21, 3′-(4-Carboxy-3-hydroxy-phenoxymethyl)-biphenyl-3-carboxylic acid], the melting point is 211 to 227 °C (dec.).
Next, `CC(=O)c1ccc(-c2cccc(COc3ccc(C(=O)O)c(O)c3)c2)s1` [Compound 3-29, 4-[3-(5-Acetyl-thiophen-2-yl)-benzyloxy]-2-hydroxy-benzoic acid]: 210 to 215 °C (dec.); `CCCCCCCCOc1ccc(C(=O)O)c(O)c1` [Compound 1-3, 2-Hydroxy-4-octyloxy-benzoic acid]: 100 to 102 °C.
As for `N#Cc1ccccc1-c1ccc(COc2ccc(C(=O)O)c(O)c2)cc1` [Compound 1-17, 4-(2′-Cyano-biphenyl-4-ylmethoxy)-2-hydroxy-benzoic acid], the melting point was 220 °C (dec.).
The compound `CCCCCCCCOc1ccc(-c2nnn[nH]2)c(O)c1` [Compound 12-6, 5-Octyloxy-2-(1H-tetrazol-5-yl)-phenol] came in with a melting point of 142 to 146 °C.
In turn, `CC(C)=CCC/C(C)=C/COc1ccc(C(=O)O)c(O)c1` [Compound 1-13, 4-(3,7-Dimethyl-octa-2,6-dienyloxy)-2-hydroxybenzoic acid] came in with a melting point of 97 to 106 °C.
As for `O=C(O)c1ccc(OCCCCCCCCO)cc1O` [Compound 1-9, 2-Hydroxy-4-(8-hydroxy-octyloxy) benzoic acid], the figure is 119 to 121 °C; as for `CC(=O)c1cccc(-c2cccc(COc3ccc(C(=O)O)c(O)c3)c2)c1` [Compound 3-20, 4-(3′-Acetyl-biphenyl-3-ylmethoxy)-2-hydroxy-benzoic acid], 173 to 180 °C (dec.).
Regarding `O=C(O)c1ccc(OCc2ccc(-c3cccc([N+](=O)[O-])c3)cc2)cc1O` [Compound 3-10, 2-Hydroxy-4-(3′-nitro-biphenyl-4-ylmethoxy)-benzoic acid], the melting point is 211 to 214 °C (dec.).
As for `O=C(O)c1ccc(NCc2cccc([N+](=O)[O-])c2)cc1O` [Compound 6-1, 2-Hydroxy-4-(3-nitro-benzylamino)-benzoic acid], the figure is 189 °C (dec.); as for `CCCCCCCCOc1ccc(O)c(O)c1` [Compound 10-1, 4-Octyloxy-benzene-1,2-diol], 108 to 115 °C (dec.); as for `CCCCCCCCOc1ccc(C(N)=O)c(O)c1` [Compound 12-4, 2-Hydroxy-4-octyloxy-benzamide], 123 to 124 °C.
`NNC(=O)c1ccc(OCc2cccc(Br)c2)cc1O` [Compound 2-7, 4-(3-Bromo-benzyloxy)-2-hydroxy-benzoic acid hydrazide]: the melting point is 201 to 203 °C.
Regarding `COc1ccncc1-c1ccc(COc2ccc(C(=O)O)c(O)c2)cc1` [Compound 3-5, 2-Hydroxy-4-[4-(4-methoxy-pyridin-3-yl)-benzyloxy]-benzoic acid], the melting point is 197 to 200 °C (dec.).
`O=C(O)c1ccc(Oc2ccc([N+](=O)[O-])cc2)cc1O` [Compound 8-1, 2-Hydroxy-4-(4-nitro-phenoxy)-benzoic acid] registered a melting point of 195 to 197 °C.
Turning to `COc1ccc(-c2ccc(COc3ccc(C(=O)O)c(O)c3)cc2)cc1OC` [Compound 3-15, 2-Hydroxy-4-(3′,4′-dimethoxy-biphenyl-4-ylmethoxy)-benzoic acid], the melting point is 200 to 204 °C (dec.).
As to `CC(=O)c1cccc(-c2ccc(COc3ccc(C(=O)O)c(O)c3)cc2)c1` [Compound 3-6, 4-(3′-Acetyl-biphenyl-4-ylmethoxy)-2-hydroxy-benzoic acid], the melting point is 215 to 220 °C (dec.).
In turn, `N#Cc1ccc(NCc2ccc(-c3ccccc3)cc2)cc1O` [Compound 12-16, 4-[(Biphenyl-4-ylmethyl)-amino]-2-hydroxy-benzonitrile] yielded a melting point of 196 to 197 °C.
As for `COc1cc(-c2cccc(COc3ccc(C(=O)O)c(O)c3)c2)ccc1O` [Compound 3-26, 2-Hydroxy-4-(4′-hydroxy-3′-methoxy-biphenyl-3-ylmethoxy)-benzoic acid], the melting point was 153 to 157 °C (dec.).
Next, `O=C(O)c1ccc(OCc2cccc(-c3ccccc3)c2)cc1O` [Compound 3-18, 4-(Biphenyl-3-ylmethoxy)-2-hydroxy-benzoic acid]: 184 °C (dec.); `O=C(O)c1ccc(OCc2ccc(-n3cncn3)cc2)cc1O` [Compound 1-2, 2-Hydroxy-4-(4-[1,2,4]triazol-1-yl-benzyloxy)-benzoic acid]: 229 °C (dec.).
As to `COc1cccc(-c2ccc(COc3ccc(C(=O)O)c(O)c3)cc2)c1` [Compound 3-9, 2-Hydroxy-4-(3′methoxy-biphenyl-4-ylmethoxy)-benzoic acid], the melting point was 197 to 199 °C (dec.).

The values are drawn from US7741352B2, “KCNQ channel modulating compounds and their pharmaceutical use” (Neurosearch A/S, priority 2003, dated 2010).
